For one assay, the target named is cdk2/Cyclin A (Homo sapiens, UniProt P24941). Description: Inhibition assay of cdk2/Cyclin A activity (SPA). As to conditions: 10 µM ATP, 60 min at room temperature. The format is biochemical. The procedure:
(§1) The inhibiting activity of putative cdk/cyclin inhibitors and the potency of selected compounds is determined through a method of assay based on the use of the SPA technology (Amersham Pharmacia Biotech).
(§2) The assay consists of the transfer of radioactivity labelled phosphate moiety by the kinase to a biotinylated substrate. The resulting 33P-labelled biotinylated product is allowed to bind to streptavidin-coated SPA beads (biotin capacity 130 pmol/mg), and light emitted was measured in a scintillation counter.
Inhibition assay of cdk2/Cyclin A activity
Kinase reaction: 4 µM in house biotinylated histone H1 (Sigma # H-5505) substrate, 10 µM ATP (0.1 microCi P^33γ-ATP), 1.1 nM Cyclin A/CDK2 complex, inhibitor in a final volume of 30 µl buffer (TRIS HCl 10 mM pH 7.5, MgCl2 10 mM, DTT 7.5 mM + 0.2 mg/ml BSA) were added to each well of a 96 U bottom. After incubation for 60 min at room temperature, the reaction was stopped by addition of 100 µl PBS buffer containing 32 mM EDTA, 500 µM cold ATP, 0.1% Triton X100 and 10mg/ml streptavidin coated SPA beads. After 20 min incubation, 110 µL of suspension were withdrawn and transferred into 96-well OPTIPLATEs containing 100 µl of 5M CsCl. After 4 hours, the plates were read for 2 min in a Packard TOP-Count radioactivity reader.
(§3) Experimental data were analyzed by the computer program GraphPad Prizm using the four parameter logistic equation: [formula] where x is the logarithm of the inhibitor concentration, y is the response; y starts at bottom and goes to top with a sigmoid shape.
Chain of PAK4 (O96013 whole entry, species assumed): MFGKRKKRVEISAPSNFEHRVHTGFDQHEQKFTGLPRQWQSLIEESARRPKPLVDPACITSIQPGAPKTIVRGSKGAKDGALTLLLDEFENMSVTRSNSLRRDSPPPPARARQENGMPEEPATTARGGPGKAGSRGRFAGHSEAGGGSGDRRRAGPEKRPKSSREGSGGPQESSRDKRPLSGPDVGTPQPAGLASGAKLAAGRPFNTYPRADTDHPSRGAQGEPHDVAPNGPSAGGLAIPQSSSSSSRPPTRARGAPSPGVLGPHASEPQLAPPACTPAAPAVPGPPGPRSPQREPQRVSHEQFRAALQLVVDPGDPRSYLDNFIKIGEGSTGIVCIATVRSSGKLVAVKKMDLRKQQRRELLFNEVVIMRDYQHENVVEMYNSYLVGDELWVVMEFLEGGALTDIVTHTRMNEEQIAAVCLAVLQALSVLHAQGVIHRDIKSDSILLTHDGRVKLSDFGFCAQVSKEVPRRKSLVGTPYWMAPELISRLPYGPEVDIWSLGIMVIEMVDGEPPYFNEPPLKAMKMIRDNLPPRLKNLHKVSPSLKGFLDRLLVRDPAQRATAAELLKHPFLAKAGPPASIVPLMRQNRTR
A word on the IC50: it is the concentration at which inhibition is half-maximal. A higher IC50 goes with weaker potency in that assay. In turn, `CN1CCN(C(=O)c2cc3[nH]nc(NC(=O)c4ccc(F)cc4)c3s2)CC1` [Compound 63, 4-fluoro-N-{5-[(4-methylpiperazin-1-yl)carbonyl]-1H-thieno[3,2-c]pyrazol-3-yl}benzamide] showed an IC50 of less than 500 nM.
The same measure, in the same setting: the figure for `O=C(Nc1n[nH]c2cc(C(=O)NCc3ccccc3)sc12)c1cc(F)cc(F)c1` [Compound 65, N-benzyl-3-[(3,5-difluorobenzoyl)amino]-1H-thieno[3,2-c]prazole-5-carboxamide] is less than 500 nM; for `CCCCNC(=O)c1cc2[nH]nc(NC(=O)c3cccs3)c2s1` [Compound 79, N-butyl-3-[(thien-2-ylcarbonyl)amino]-1H-thieno[3,2-c]pyrazole-5-carboxamide] it is less than 500 nM.
Turning to `CCCCNC(=O)c1cc2[nH]nc(NC(=O)CCCC)c2s1` [Compound 84, N-butyl-3-(pentanoylamino)-1H-thieno[3,2-c]pyrazole-5-carboxamide], the IC50 is less than 500 nM.
Same read-out and setting: as for `CCCCNC(=O)c1cc2[nH]nc(NC(=O)C3CC3)c2s1` [Compound 85, N-butyl-3-[(cyclopropylcarbonyl)amino]-1H-thieno[3,2-c]pyrazole-5-carboxamide], the figure is less than 500 nM; as for `CCCCNC(=O)c1cc2[nH]nc(NC(=O)C3CC3)c2s1` [Compound 86, N-butyl-3-[(cyclopropylcarbonyl)amino]-1H-thieno[3,2-c]pyrazole-5-carboxamide], less than 500 nM; as for `C=CCNC(=O)c1cc2[nH]nc(NC(=O)NCc3ccccc3)c2s1` [Compound 87, N-allyl-3-{[(benzylamino)carbonyl]amino}-1H-thieno[3,2-c]pyrazole-5-carboxamide], less than 500 nM.
Same read-out and setting: the figure for `Cc1c(C(=O)NCc2ccc(F)cc2)sc2c(NC(=O)c3ccc(F)cc3)n[nH]c12` [Compound 145, 3-[(4-fluorobenzoyl)amino]-N-(4-fluorobenzyl)-6-methyl-1H-thieno[3,2-c]pyrazole-5-carboxamide] is less than 500 nM; for `Cc1c(C(=O)NCc2ccc(F)cc2)sc2c(NC(=O)c3cccs3)n[nH]c12` [Compound 146, N-(4-fluorobenzyl)-6-methyl-3-[(thien-2-ylcarbonyl)amino]-1H-thieno[3,2-c]pyrazole-5-carboxamide] it is less than 500 nM; for `CN1CCN(C(=O)c2cc3[nH]nc(NC(=O)c4ccc(F)cc4)c3o2)CC1` [Compound 167, 4-fluoro-N-{5-[(4-methylpiperazin-1-yl)carbonyl]-1H-furo[3,2-c]pyrazol-3-yl}benzamide] it is less than 500 nM.

A further assay concerns the target PAK4 (Homo sapiens, UniProt O96013). Description: PAK4 inhibition. The format is biochemical.
Conditions: not given
For the compound `CN1CCN(c2ccc(C(=O)Nc3n[nH]c4cc(C(=O)NCc5ccccc5)sc34)cc2)CC1` [Compound 91, N-benzyl-3-{[4-(4-methylpiperazin-1-yl)benzoyl]amino}-1H-thieno[3,2-c]pyrazole-5-carboxamide], the IC50 was less than 500 nM.
The compound `CN1CCN(c2ccc(C(=O)Nc3n[nH]c4cc(C(=O)NCc5cccc(Cl)c5)sc34)cc2)CC1` [Compound 96, N-(3-chlorobenzyl)-3-{[4-(4-methylpiperazin-1-yl)benzoyl]amino}-1H-thieno[3,2-c]pyrazole-5-carboxamide] registered an IC50 of less than 500 nM.
Same read-out and setting: as for `COC[C@@H](NC(=O)c1cc2[nH]nc(NC(=O)c3ccc(N4CCOCC4)cc3)c2s1)c1ccccc1` [Compound 129, N-[(1S)-2-methoxy-1-phenylethyl]-3-[(4-morpholin-4-ylbenzoyl)amino]-1H-thieno[3,2-c]pyrazole-5-carboxamide], the figure is less than 500 nM.

A further assay concerns the target T1, Aurora-2 (Homo sapiens, UniProt O14965).
T1 sequence (O14965 1-403): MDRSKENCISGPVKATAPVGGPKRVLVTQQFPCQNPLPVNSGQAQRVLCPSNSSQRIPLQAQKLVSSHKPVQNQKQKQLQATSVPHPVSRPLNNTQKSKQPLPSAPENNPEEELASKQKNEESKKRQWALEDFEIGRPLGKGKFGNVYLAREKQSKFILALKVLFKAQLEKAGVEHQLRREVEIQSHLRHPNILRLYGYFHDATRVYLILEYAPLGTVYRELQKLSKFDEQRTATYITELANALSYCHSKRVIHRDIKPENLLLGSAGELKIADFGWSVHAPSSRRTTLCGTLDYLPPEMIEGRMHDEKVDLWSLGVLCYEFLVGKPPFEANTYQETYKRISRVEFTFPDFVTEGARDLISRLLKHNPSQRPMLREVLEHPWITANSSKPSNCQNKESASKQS
Description: Inhibition assay of Aurora-2 activity (SPA). The class given is biochemical. Conditions: 10 µM ATP, 60 minutes at room temperature. The method, then: as §1, §2, §3
Inhibition assay of Aurora-2 activity
After 60 minutes at room temperature incubation, reaction was stopped and biotinylated peptide captured by adding 100 µl of bead suspension.
Stratification: 100 µl of CsC12 5 M were added to each well and let stand 4 hour before radioactivity was counted in the Top-Count instrument.
IC50 determination: see above
`CCNC(=O)c1cc2[nH]nc(NC(=O)c3ccc(C(C)(C)C)cc3)c2s1` [Compound 66, 3-[(4-tert-butylbenzoyl)amino]-N-ethyl-1H-thieno[3,2-c]pyrazole-5-carboxamide] showed an IC50 of less than 100 nM.
For `CCCCNC(=O)c1cc2[nH]nc(NC(=O)c3cccs3)c2s1` [Compound 79, N-butyl-3-[(thien-2-ylcarbonyl)amino]-1H-thieno[3,2-c]pyrazole-5-carboxamide], the IC50 is less than 100 nM.
`C[C@@H](NC(=O)c1cc2[nH]nc(NC(=O)c3ccc(CN4CCOCC4)o3)c2s1)c1ccccc1` [Compound 82, 3-{[5-(morpholin-4-ylmethyl)-2-furoyl]amino}-N-[(1R)-1-phenylethyl]-1H-thieno[3,2-c]pyrazole-5-carboxamide] returned an IC50 of less than 100 nM.
`CN1CCN(c2ccc(C(=O)Nc3n[nH]c4cc(C(=O)NCc5cccc(F)c5)sc34)cc2)CC1` [Compound 94, N-(3-fluorobenzyl)-3-{[4-(4-methylpiperazin-1-yl)benzoyl]amino}-1H-thieno[3,2-c]pyrazole-5-carboxamide] came in with an IC50 of less than 100 nM.
Same read-out and setting: as for `CN1CCN(c2ccc(C(=O)Nc3n[nH]c4cc(C(=O)NCc5cccc(Cl)c5)sc34)cc2)CC1` [Compound 96, N-(3-chlorobenzyl)-3-{[4-(4-methylpiperazin-1-yl)benzoyl]amino}-1H-thieno[3,2-c]pyrazole-5-carboxamide], the figure is less than 100 nM; as for `CN1CCN(c2ccc(C(=O)Nc3n[nH]c4cc(C(=O)NCc5ccc(Cl)cc5)sc34)cc2)CC1` [Compound 97, N-(4-chlorobenzyl)-3-{[4-(4-methylpiperazin-1-yl)benzoyl]amino}-1H-thieno[3,2-c]pyrazole-5-carboxamide], less than 100 nM; as for `CN1CCN(c2ccc(C(=O)Nc3n[nH]c4cc(C(=O)NCc5ccc(C(F)(F)F)cc5)sc34)cc2)CC1` [Compound 104, 3-{[4-(4-methylpiperazin-1-yl)benzoyl]amino}-N-[4-(trifluoromethyl)benzyl]-1H-thieno[3,2-c]pyrazole-5-carboxamide], less than 100 nM.
Same read-out and setting: as for `CN1CCN(c2ccc(C(=O)Nc3n[nH]c4cc(C(=O)NCc5ccccc5Cl)sc34)cc2)CC1` [Compound 106, N-(2-chlorobenzyl)-3-{[4-(4-methylpiperazin-1-yl)benzoyl]amino}-1H-thieno[3,2-c]pyrazole-5-carboxamide], the figure is less than 100 nM.
The same measure, in the same setting: as for `CCc1cccc(CC)c1NC(=O)c1cc2[nH]nc(NC(=O)c3ccc(N4CCN(C)CC4)cc3)c2s1` [Compound 107, N-(2,6-diethylphenyl)-3-{[4-(4-methylpiperazin-1-yl)benzoyl]amino}-1H-thieno[3,2-c]pyrazole-5-carboxamide], the figure is less than 100 nM; as for `Cc1cccc(C)c1NC(=O)c1cc2[nH]nc(NC(=O)c3ccc(N4CCN(C)CC4)cc3)c2s1` [Compound 108, N-(2,6-dimethylphenyl)-3-{[4-(4-methylpiperazin-1-yl)benzoyl]amino}-1H-thieno[3,2-c]pyrazole-5-carboxamide], less than 100 nM; as for `Cc1cccc(Cl)c1NC(=O)c1cc2[nH]nc(NC(=O)c3ccc(N4CCN(C)CC4)cc3)c2s1` [Compound 109, N-(2-chloro-6-methylphenyl)-3-{[4-(4-methylpiperazin-1-yl)benzoyl]amino}-1H-thieno[3,2-c]pyrazole-5-carboxamide], less than 100 nM.
With `CN1CCN(c2ccc(C(=O)Nc3n[nH]c4cc(C(=O)N(C)Cc5ccccc5)sc34)cc2)CC1` [Compound 113, N-benzyl-N-methyl-3-{[4-(4-methylpiperazin-1-yl)benzoyl]amino}-1H-thieno[3,2-c]pyrazole-5-carboxamide], the IC50 is less than 100 nM.
Compound `Cc1cccc(Cl)c1CNC(=O)c1cc2[nH]nc(NC(=O)c3ccc(N4CCN(C)CC4)cc3)c2s1` [Compound 122, N-(2-chloro-6-methylbenzyl)-3-{[4-(4-methylpiperazin-1-yl)benzoyl]amino}-1H-thieno[3,2-c]pyrazole-5-carboxamide bis(trifluoroacetate)] displayed an IC50 of less than 100 nM.
Take `O=C(Nc1n[nH]c2cc(C(=O)NC(c3ccccc3)c3ccccc3)sc12)c1ccc(N2CCOCC2)cc1` [Compound 128, N-benzhydryl-3-[(4-morpholin-4-ylbenzoyl)amino]-1H-thieno[3,2-c]pyrazole-5-carboxamide]: the IC50 was less than 100 nM.
`COC[C@@H](NC(=O)c1cc2[nH]nc(NC(=O)c3ccc(N4CCOCC4)cc3)c2s1)c1ccccc1` [Compound 129, N-[(1S)-2-methoxy-1-phenylethyl]-3-[(4-morpholin-4-ylbenzoyl)amino]-1H-thieno[3,2-c]pyrazole-5-carboxamide] registered an IC50 of less than 100 nM.
With `CC(NC(=O)c1cc2[nH]nc(NC(=O)c3ccc(N4CCOCC4)cc3)c2s1)c1ccc(Cl)cc1` (stereo not shown) [Compound 130, N-[1-(4-chlorophenyl)ethyl]-3-[(4-morpholin-4-ylbenzoyl)amino]-1H-thieno[3,2-c]pyrazole-5-carboxamide], the IC50 was less than 100 nM.
For the compound `O=C(Nc1n[nH]c2cc(C(=O)NCc3ccc(Cl)cc3)sc12)c1ccc(N2CCOCC2)cc1` [Compound 134, N-(4-chlorobenzyl)-3-[(4-morpholin-4-ylbenzoyl)amino]-1H-thieno[3,2-c]pyrazole-5-carboxamide], the IC50 is less than 100 nM.
The compound `Cc1c(C(=O)NCc2ccc(F)cc2)sc2c(NC(=O)c3cccs3)n[nH]c12` [Compound 146, N-(4-fluorobenzyl)-6-methyl-3-[(thien-2-ylcarbonyl)amino]-1H-thieno[3,2-c]pyrazole-5-carboxamide] came in with an IC50 of less than 100 nM.

(Values after patent publication EP1534716B1, “HETEROBICYCLIC PYRAZOLE DERIVATIVES AS KINASE INHIBITORS” (priority 2002, dated 2004).)
